Results reported in ChEMBL document CHEMBL3044790, “Evaluation of antiasthmatic activity of 7,8,9,10-tetrahydroazepino[2,1-b]quinazolin-12(6H)-one in combination with ambroxol in Guinea pigs” (2012).
Activity calls are given as the source filed them. The calls are words filed in the database; no cut-off is given here.

How the values were obtained:
[1] = system: Cavia porcellus; experiment: Antiasthmatic activity in Cavia porcellus Hartley (guinea pig) ovalbumin-induced hyperresponsive model assessed as cough latency at 20 mg/kg, ip qd administered for 7 days challenged 30 min post last dose on day 7 (reference value: 4.75 +/- 0.86 min); type: functional; details: route intraperitoneal
[2] = system: Cavia porcellus; experiment: (§1) Antiasthmatic activity in Cavia porcellus Hartley (guinea pig) ovalbumin-induced hyperresponsive model assessed as decrease in nitrate/nitrite level in per gram of lung tissue at 20 mg/kg, ip qd administered for 7 days challenged 30 min post last dose on day 7 by griess assay (reference value: 195.55 +/- 8.34 umol/g); type: functional; details: route intraperitoneal
[3] = system: Cavia porcellus; experiment: Antiasthmatic activity in Cavia porcellus Hartley (guinea pig) ovalbumin-induced hyperresponsive model assessed as decrease in nitrate/nitrite level in BAL at 20 mg/kg, ip qd administered for 7 days challenged 30 min post last dose on day 7 by griess assay (reference value: 70.16 +/- 6.20 umol/ml); type: functional; details: route intraperitoneal
[4] = system: Cavia porcellus; experiment: Antiasthmatic activity in Cavia porcellus Hartley (guinea pig) ovalbumin-induced hyperresponsive model assessed as increase in GSH level in per gram of lung tissue at 20 mg/kg, ip qd administered for 7 days challenged 30 min post last dose on day 7 (reference value: 15.175 +/- 1.809 umol/g); type: functional; details: route intraperitoneal
[5] = system: Cavia porcellus; experiment: Antiasthmatic activity in Cavia porcellus Hartley (guinea pig) ovalbumin-induced hyperresponsive model assessed as increase in GSH level in BAL at 20 mg/kg, ip qd administered for 7 days challenged 30 min post last dose on day 7 (reference value: 28.95 +/- 3.66 umol/ml); type: functional; details: route intraperitoneal
[6] = system: Cavia porcellus; experiment: Antiasthmatic activity in Cavia porcellus Hartley (guinea pig) ovalbumin-induced hyperresponsive model assessed as reduction in TBARS level in BAL at 20 mg/kg, ip qd administered for 7 days challenged 30 min post last dose on day 7 (reference value: 0.471 +/- 0.08 nmol/ml); type: functional; details: route intraperitoneal
[7] = system: Cavia porcellus; experiment: Antiasthmatic activity in Cavia porcellus Hartley (guinea pig) ovalbumin-induced hyperresponsive model assessed as reduction in eosinophil count in BAL at 20 mg/kg, ip qd administered for 7 days challenged 30 min post last dose on day 7; type: functional, organism-based; set-up: dose 20 mg/kg
[8] = system: Cavia porcellus; experiment: Antiasthmatic activity in Cavia porcellus Hartley (guinea pig) ovalbumin-induced hyperresponsive model assessed as reduction in total lymphocyte count in BAL at 20 mg/kg, ip qd administered for 7 days challenged 30 min post last dose on day 7; type: functional, organism-based; set-up: dose 20 mg/kg
[9] = system: Cavia porcellus; experiment: Antiasthmatic activity in Cavia porcellus Hartley (guinea pig) ovalbumin-induced hyperresponsive model assessed as cough latency at 10 mg/kg, ip qd administered for 7 days challenged 30 min post last dose on day 7 (reference value: 4.75 +/- 0.86 min); type: functional; details: route intraperitoneal
[10] = system: Bronchus smooth muscle; experiment: Inhibition of ovalbumin-induced constriction of Cavia porcellus (guinea pig) bronchial smooth muscle; type: functional
[11] = system: Cavia porcellus; experiment: Antiasthmatic activity in Cavia porcellus Hartley (guinea pig) ovalbumin-induced hyperresponsive model assessed as reduction in TBARS level in per gram of lung tissue at 20 mg/kg, ip qd administered for 7 days challenged 30 min post last dose on day 7 (reference value: 0.291 +/- 0.039 nmol/g); type: functional; details: route intraperitoneal
[12] = system: Cavia porcellus; experiment: Antiasthmatic activity in Cavia porcellus Hartley (guinea pig) ovalbumin-induced hyperresponsive model assessed as reduction in total lymphocyte count in BAL at 100 mg/kg, ip qd administered for 7 days challenged 30 min post last dose on day 7; type: functional, organism-based; set-up: dose 100 mg/kg
[13] = system: Cavia porcellus; experiment: Antiasthmatic activity in Cavia porcellus Hartley (guinea pig) ovalbumin-induced hyperresponsive model assessed as reduction in total lymphocyte count in BAL at 50 mg/kg, ip qd administered for 7 days challenged 30 min post last dose on day 7; type: functional, organism-based; set-up: dose 50 mg/kg
[14] = system: Cavia porcellus; experiment: Antiasthmatic activity in Cavia porcellus Hartley (guinea pig) ovalbumin-induced hyperresponsive model assessed as increase in GSH level in per gram of lung tissue at 100 mg/kg, ip qd administered for 7 days challenged 30 min post last dose on day 7 (reference value: 15.175 +/- 1.809 umol/g); type: functional; details: route intraperitoneal
[15] = system: Cavia porcellus; experiment: Antiasthmatic activity in Cavia porcellus Hartley (guinea pig) ovalbumin-induced hyperresponsive model assessed as cough latency at 100 mg/kg, ip qd administered for 7 days challenged 30 min post last dose on day 7 (reference value: 4.75 +/- 0.86 min); type: functional; details: route intraperitoneal
[16] = system: Cavia porcellus; experiment: Antiasthmatic activity in Cavia porcellus Hartley (guinea pig) ovalbumin-induced hyperresponsive model assessed as reduction in eosinophil count in BAL at 50 mg/kg, ip qd administered for 7 days challenged 30 min post last dose on day 7; type: functional, organism-based; set-up: dose 50 mg/kg
[17] = system: Cavia porcellus; experiment: Antiasthmatic activity in Cavia porcellus Hartley (guinea pig) ovalbumin-induced hyperresponsive model assessed as reduction in TBARS level in per gram of lung tissue at 100 mg/kg, ip qd administered for 7 days challenged 30 min post last dose on day 7 (reference value: 0.291 +/- 0.039 nmol/g); type: functional; details: route intraperitoneal
[18] = system: Cavia porcellus; experiment: Antiasthmatic activity in Cavia porcellus Hartley (guinea pig) ovalbumin-induced hyperresponsive model assessed as increase in GSH level in BAL at 100 mg/kg, ip qd administered for 7 days challenged 30 min post last dose on day 7 (reference value: 28.95 +/- 3.66 umol/ml); type: functional; details: route intraperitoneal
[19] = system: Cavia porcellus; experiment: Antiasthmatic activity in Cavia porcellus Hartley (guinea pig) ovalbumin-induced hyperresponsive model assessed as reduction in eosinophil count in BAL at 100 mg/kg, ip qd administered for 7 days challenged 30 min post last dose on day 7; type: functional, organism-based; set-up: dose 100 mg/kg
[20] = system: Cavia porcellus; experiment: Antiasthmatic activity in Cavia porcellus Hartley (guinea pig) ovalbumin-induced hyperresponsive model assessed as cough latency at 50 mg/kg, ip qd administered for 7 days challenged 30 min post last dose on day 7 (reference value: 4.75 +/- 0.86 min); type: functional; details: route intraperitoneal
[21] = system: Cavia porcellus; experiment: as §1, with “100” for “20”; type: functional; details: route intraperitoneal
[22] = system: Cavia porcellus; experiment: Antiasthmatic activity in Cavia porcellus Hartley (guinea pig) ovalbumin-induced hyperresponsive model assessed as decrease in nitrate/nitrite level in BAL at 100 mg/kg, ip qd administered for 7 days challenged 30 min post last dose on day 7 by griess assay (reference value: 70.16 +/- 6.20 umol/ml); type: functional; details: route intraperitoneal
[23] = system: Cavia porcellus; experiment: Antiasthmatic activity in Cavia porcellus Hartley (guinea pig) ovalbumin-induced hyperresponsive model assessed as reduction in TBARS level in BAL at 100 mg/kg, ip qd administered for 7 days challenged 30 min post last dose on day 7 (reference value: 0.471 +/- 0.08 nmol/ml); type: functional; details: route intraperitoneal

## O=c1c2ccccc2nc2n1CCCCC2
[1]
  Time: 22.32 min
[2]
  Activity: 81.777 µmol
[3]
  Activity: 48.945 µmol/mL
[4]
  Activity: 66.67 µmol
[5]
  Activity: 71.67 µmol/mL
[6]
  Activity: 0.199 nmol/mL
[7]
  Activity: Active
[8]
  Activity: Active
[9]
  Time: 15.67 min
[10]
  inhibition: Dose-dependent effect
[11]
  Activity: 0.094 nmol

## Nc1c(Br)cc(Br)cc1CN[C@H]1CC[C@H](O)CC1 [AMBROXOL]
[12]
  Activity: Active
[13]
  Activity: Active
[14]
  Activity: 50.28 µmol
[15]
  Time: 13.17 min
[16]
  Activity: Active
[17]
  Activity: 0.146 nmol
[18]
  Activity: 56.83 µmol/mL
[19]
  Activity: Active
[20]
  Time: 5.627 min
[21]
  Activity: 134.67 µmol
[22]
  Activity: 49.075 µmol/mL
[23]
  Activity: 0.325 nmol/mL
